Test results taken from patent publication US12459918B2, “Isoquinolinone derivatives serving as rock protein kinase inhibitors and use thereof” (GUANGZHOU OCUSUN OPHTHALMIC BIOTECHNOLOGY CO., LTD., priority 2019, dated 2025).

Tests used:
Type in all cases: in vivo
[1] = system: New Zealand rabbits with normal intraocular pressure; assay: Intraocular pressure reduction experiment in New Zealand rabbits with normal intraocular pressure; conditions: for Intraocular pressure in the left eye: 20 mg/mL group, left eye (saline or solvent); for Intraocular pressure in the right eye: 20 mg/mL in right eye; for Reduction magnitude of intraocular pressure: 20 mg/mL, left minus right eye
Description: Experimental Example 2. Intraocular Pressure Reduction Experiment in New Zealand Rabbits with Normal Intraocular Pressure
Rabbits with normal intraocular pressure were adopted to screen intraocular pressure reduction actions of the potential compounds by eye-drop administration.
Male New Zealand rabbits, aged 97-127 days, weighted 2.65-3.5 kg, purchased from PizhouDongfang Breeding Co. Ltd.
The male New Zealand rabbits were randomly divided into 8 rabbits/per group using a computer-generated randomization method Animals in each group were eye-dropped with different test samples in the right eye, and normal saline or solvent in the left eye, and the volume of the administration was both 50 μL/eye. The intraocular pressure of the animals was measured before administration and in 1, 2, 4, 6, 8 and 10 hours after the administration, respectively.

[2] = system: New Zealand rabbits with acute ocular hypertension; assay: Intraocular pressure reduction experiment in New Zealand rabbits with acute ocular hypertension, experiment operation 1; conditions: 10 mg/mL both eyes; for Intraocular pressure in the left eye: left eye (not modeled); for Intraocular pressure in the right eye: right eye (induced ocular hypertension)
Description: (§1) Experimental Example 3. Intraocular Pressure Reduction Experiment in New Zealand Rabbits with Acute Ocular Hypertension
(§2) Acute ocular hypertension of rabbits were induced by anterior chamber injection of a viscoelastic agent and the intraocular pressure reduction action of compound 60 and compound 63 at different concentrations were explored by eye-drop administration.
(§3) Male New Zealand rabbits, aged 97-127 days, weighted 2.5-3.4 kg, purchased from PizhouDongfang Breeding Co. Ltd.
Male New Zealand rabbits were randomly divided into 8 rabbits/per group according to body weight using a computer-generated randomization method. The animals in each group were injected with medical sodium hyaluronate gel in the anterior chamber of right eye in a single dose, 100 μL/eye, to induce ocular hypertension. In 5-15 minutes, 3 hours and 6 hours after right eye modeling, both eyes were dropped with a solvent, K-115 or test samples (compound 60 at different concentrations) at a volume of 50 μL/eye and intraocular pressure of the animals was measured before administration and in 1, 2, 4, 6, 8 and 10 hours after administration, respectively.

[3] = system: New Zealand rabbits with acute ocular hypertension; assay: Intraocular pressure reduction experiment in New Zealand rabbits with acute ocular hypertension, experiment operation 2; conditions: for Intraocular pressure in the left eye: left eye (solvent, not modeled)
Description: as §1, §2, §3
50 male New Zealand rabbits were randomly divided into 5 groups according to body weight, with 10 rabbits/per group Animals in 1-5 groups were injected with medical sodium hyaluronate gel in the anterior chamber of right eye in a single dose, 100 μL/eye, to induce ocular hypertension. In 5-15 minutes after modeling, the right eye was respectively dropped with a solvent, K-115 and test samples (compound 63 at different concentrations), the left eye was dropped with a solvent, the volume of the administration was all 50 μL/eye, and intraocular pressure in both eyes of the animals was measured before administration and in 2, 4, 6, 8 and 10 hours after administration, respectively.

Structure (SMILES): C[C@H]1CNCCCN1S(=O)(=O)c1cccc2cncc(F)c12 [Compound K-115, reference compound]
- Intraocular pressure in the left eye ([1]; 1 hour after administration): 11.42 mmHg
- Intraocular pressure in the left eye ([1]; 2 hours after administration): 11.67 mmHg
- Intraocular pressure in the left eye ([1]; 4 hours after administration): 12.08 mmHg
- Intraocular pressure in the left eye ([1]; 6 hours after administration): 12.38 mmHg
- Intraocular pressure in the left eye ([1]; 8 hours after administration): 12.83 mmHg
- Intraocular pressure in the left eye ([1]; 10 hours after administration): 15.25 mmHg
- Intraocular pressure in the left eye ([1]; before administration): 12.29 mmHg
- Intraocular pressure in the right eye ([1]; 1 hour after administration): 7.54 mmHg
- Intraocular pressure in the right eye ([1]; 2 hours after administration): 8.63 mmHg
- Intraocular pressure in the right eye ([1]; 4 hours after administration): 10.83 mmHg
- Intraocular pressure in the right eye ([1]; 6 hours after administration): 11.83 mmHg
- Intraocular pressure in the right eye ([1]; 8 hours after administration): 12.63 mmHg
- Intraocular pressure in the right eye ([1]; 10 hours after administration): 14.92 mmHg
- Intraocular pressure in the right eye ([1]; before administration): 12.92 mmHg
- Reduction magnitude of intraocular pressure ([1]; 1 hour after administration): 3.88 mmHg
- Reduction magnitude of intraocular pressure ([1]; 2 hours after administration): 3.04 mmHg
- Reduction magnitude of intraocular pressure ([1]; 4 hours after administration): 1.25 mmHg
- Reduction magnitude of intraocular pressure ([1]; 6 hours after administration): 0.55 mmHg
- Reduction magnitude of intraocular pressure ([1]; 8 hours after administration): 0.2 mmHg
- Reduction magnitude of intraocular pressure ([1]; 10 hours after administration): 0.33 mmHg
- Reduction magnitude of intraocular pressure ([1]; before administration): −0.63 mmHg
- Intraocular pressure in the left eye ([2]; 1 hour after administration): 5.88 mmHg
- Intraocular pressure in the left eye ([2]; 2 hours after administration): 5.96 mmHg
- Intraocular pressure in the left eye ([2]; 4 hours after administration): 8.29 mmHg
- Intraocular pressure in the left eye ([2]; 6 hours after administration): 10.54 mmHg
- Intraocular pressure in the left eye ([2]; 8 hours after administration): 11.88 mmHg
- Intraocular pressure in the left eye ([2]; 10 hours after administration): 11.79 mmHg
- Intraocular pressure in the left eye ([2]; before administration): 11.79 mmHg
- Intraocular pressure in the right eye ([2]; 1 hour after administration): 28.79 mmHg
- Intraocular pressure in the right eye ([2]; 2 hours after administration): 22.67 mmHg
- Intraocular pressure in the right eye ([2]; 4 hours after administration): 26.08 mmHg
- Intraocular pressure in the right eye ([2]; 6 hours after administration): 23.25 mmHg
- Intraocular pressure in the right eye ([2]; 8 hours after administration): 23.25 mmHg
- Intraocular pressure in the right eye ([2]; 10 hours after administration): 11.92 mmHg
- Intraocular pressure in the right eye ([2]; before administration): 11.92 mmHg
- Intraocular pressure in the left eye ([3]; 4 mg/mL group, 2 hours after administration): 6.50 mmHg
- Intraocular pressure in the left eye ([3]; 4 mg/mL group, 4 hours after administration): 8.54 mmHg
- Intraocular pressure in the left eye ([3]; 4 mg/mL group, 6 hours after administration): 11.40 mmHg
- Intraocular pressure in the left eye ([3]; 4 mg/mL group, 8 hours after administration): 13.20 mmHg
- Intraocular pressure in the left eye ([3]; 4 mg/mL group, 10 hours after administration): 13.37 mmHg
- Intraocular pressure in the left eye ([3]; 4 mg/mL group, before administration): 11.80 mmHg
- Intraocular pressure in the right eye ([3]; 4 mg/mL in right eye (induced ocular hypertension), 2 hours after administration): 8.20 mmHg
- Intraocular pressure in the right eye ([3]; 4 mg/mL in right eye (induced ocular hypertension), 4 hours after administration): 11.27 mmHg
- Intraocular pressure in the right eye ([3]; 4 mg/mL in right eye (induced ocular hypertension), 6 hours after administration): 15.07 mmHg
- Intraocular pressure in the right eye ([3]; 4 mg/mL in right eye (induced ocular hypertension), 8 hours after administration): 15.57 mmHg
- Intraocular pressure in the right eye ([3]; 4 mg/mL in right eye (induced ocular hypertension), 10 hours after administration): 16.47 mmHg
- Intraocular pressure in the right eye ([3]; 4 mg/mL in right eye (induced ocular hypertension), before administration): 11.77 mmHg

Structure (SMILES): Cc1ccc(C(=O)OCn2cc(C)c3c(S(=O)(=O)N4CC[C@H](N)C4)cccc3c2=O)c(C)c1 [Compound 63]
- Intraocular pressure in the left eye ([3]; 0.25 mg/mL group, 2 hours after administration): 6.07 mmHg
- Intraocular pressure in the left eye ([3]; 0.25 mg/mL group, 4 hours after administration): 6.60 mmHg
- Intraocular pressure in the left eye ([3]; 0.25 mg/mL group, 6 hours after administration): 9.10 mmHg
- Intraocular pressure in the left eye ([3]; 0.25 mg/mL group, 8 hours after administration): 11.50 mmHg
- Intraocular pressure in the left eye ([3]; 0.25 mg/mL group, 10 hours after administration): 12.43 mmHg
- Intraocular pressure in the left eye ([3]; 0.25 mg/mL group, before administration): 10.53 mmHg
- Intraocular pressure in the right eye ([3]; 0.25 mg/mL in right eye (induced ocular hypertension), 2 hours after administration): 8.47 mmHg
- Intraocular pressure in the right eye ([3]; 0.25 mg/mL in right eye (induced ocular hypertension), 4 hours after administration): 8.60 mmHg
- Intraocular pressure in the right eye ([3]; 0.25 mg/mL in right eye (induced ocular hypertension), 6 hours after administration): 11.20 mmHg
- Intraocular pressure in the right eye ([3]; 0.25 mg/mL in right eye (induced ocular hypertension), 8 hours after administration): 13.37 mmHg
- Intraocular pressure in the right eye ([3]; 0.25 mg/mL in right eye (induced ocular hypertension), 10 hours after administration): 13.10 mmHg
- Intraocular pressure in the right eye ([3]; 0.25 mg/mL in right eye (induced ocular hypertension), before administration): 11.43 mmHg
- Intraocular pressure in the left eye ([3]; 2.0 mg/mL group, 2 hours after administration): 6.60 mmHg
- Intraocular pressure in the left eye ([3]; 2.0 mg/mL group, 4 hours after administration): 7.04 mmHg
- Intraocular pressure in the left eye ([3]; 2.0 mg/mL group, 6 hours after administration): 11.23 mmHg
- Intraocular pressure in the left eye ([3]; 2.0 mg/mL group, 8 hours after administration): 12.84 mmHg
- Intraocular pressure in the left eye ([3]; 2.0 mg/mL group, 10 hours after administration): 13.10 mmHg
- Intraocular pressure in the left eye ([3]; 2.0 mg/mL group, before administration): 11.27 mmHg
- Intraocular pressure in the right eye ([3]; 2.0 mg/mL in right eye (induced ocular hypertension), 2 hours after administration): 8.52 mmHg
- Intraocular pressure in the right eye ([3]; 2.0 mg/mL in right eye (induced ocular hypertension), 4 hours after administration): 11.56 mmHg
- Intraocular pressure in the right eye ([3]; 2.0 mg/mL in right eye (induced ocular hypertension), 6 hours after administration): 13.81 mmHg
- Intraocular pressure in the right eye ([3]; 2.0 mg/mL in right eye (induced ocular hypertension), 8 hours after administration): 12.96 mmHg
- Intraocular pressure in the right eye ([3]; 2.0 mg/mL in right eye (induced ocular hypertension), 10 hours after administration): 11.96 mmHg
- Intraocular pressure in the right eye ([3]; 2.0 mg/mL in right eye (induced ocular hypertension), before administration): 11.23 mmHg
- Intraocular pressure in the left eye ([3]; 8.0 mg/mL group, 2 hours after administration): 5.93 mmHg
- Intraocular pressure in the left eye ([3]; 8.0 mg/mL group, 4 hours after administration): 6.43 mmHg
- Intraocular pressure in the left eye ([3]; 8.0 mg/mL group, 6 hours after administration): 10.10 mmHg
- Intraocular pressure in the left eye ([3]; 8.0 mg/mL group, 8 hours after administration): 11.87 mmHg
- Intraocular pressure in the left eye ([3]; 8.0 mg/mL group, 10 hours after administration): 13.19 mmHg
- Intraocular pressure in the left eye ([3]; 8.0 mg/mL group, before administration): 11.20 mmHg
- Intraocular pressure in the right eye ([3]; 8.0 mg/mL in right eye (induced ocular hypertension), 2 hours after administration): 7.40 mmHg
- Intraocular pressure in the right eye ([3]; 8.0 mg/mL in right eye (induced ocular hypertension), 4 hours after administration): 7.97 mmHg
- Intraocular pressure in the right eye ([3]; 8.0 mg/mL in right eye (induced ocular hypertension), 6 hours after administration): 8.84 mmHg
- Intraocular pressure in the right eye ([3]; 8.0 mg/mL in right eye (induced ocular hypertension), 8 hours after administration): 8.60 mmHg
- Intraocular pressure in the right eye ([3]; 8.0 mg/mL in right eye (induced ocular hypertension), 10 hours after administration): 8.78 mmHg
- Intraocular pressure in the right eye ([3]; 8.0 mg/mL in right eye (induced ocular hypertension), before administration): 11.53 mmHg
